Data as given in ChEMBL document CHEMBL6071206, “Development of BODIPY FL SNS 032 as a Versatile Probe for Constitutive Androstane Receptor and Multiple Kinases” (ACS Med Chem Lett, 2024).
Activity calls are given as the source filed them. The calls are words filed in the database; no cut-off is given here.

Key:
[1] = biological target: T1, Nuclear receptor subfamily 1 group I member 3 (Homo sapiens, UniProt Q14994); experiment: Inhibition of GST-tagged human CAR LBD incubated for 90 mins by TR-FRET assay
T1 sequence (Q14994 whole entry): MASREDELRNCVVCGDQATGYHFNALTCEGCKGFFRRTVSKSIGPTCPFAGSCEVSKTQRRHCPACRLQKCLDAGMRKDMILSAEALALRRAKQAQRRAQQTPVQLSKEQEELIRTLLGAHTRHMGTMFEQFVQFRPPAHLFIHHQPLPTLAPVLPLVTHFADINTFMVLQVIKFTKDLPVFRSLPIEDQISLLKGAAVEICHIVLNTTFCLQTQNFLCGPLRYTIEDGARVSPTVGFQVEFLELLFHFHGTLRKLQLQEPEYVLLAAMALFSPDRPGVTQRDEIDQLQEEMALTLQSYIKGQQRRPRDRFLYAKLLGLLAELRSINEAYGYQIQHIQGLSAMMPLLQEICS

[2] = biological target: T2, Glycogen synthase kinase-3 alpha (Homo sapiens, UniProt P49840); experiment: Inhibition of GST-tagged human GSK3A incubated for 90 mins by TR-FRET assay
[3] = biological target: T3, Calcium/calmodulin-dependent protein kinase kinase 2 (Homo sapiens, UniProt Q96RR4); experiment: Inhibition of GST-tagged human CAMKK2 incubated for 90 mins by TR-FRET assay
[4] = biological target: T4, Mitogen-activated protein kinase 15 (Homo sapiens, UniProt Q8TD08); experiment: Inhibition of Flag/His-tagged human MAPK15 incubated for 90 mins by TR-FRET assay
T4 sequence (Q8TD08 whole entry): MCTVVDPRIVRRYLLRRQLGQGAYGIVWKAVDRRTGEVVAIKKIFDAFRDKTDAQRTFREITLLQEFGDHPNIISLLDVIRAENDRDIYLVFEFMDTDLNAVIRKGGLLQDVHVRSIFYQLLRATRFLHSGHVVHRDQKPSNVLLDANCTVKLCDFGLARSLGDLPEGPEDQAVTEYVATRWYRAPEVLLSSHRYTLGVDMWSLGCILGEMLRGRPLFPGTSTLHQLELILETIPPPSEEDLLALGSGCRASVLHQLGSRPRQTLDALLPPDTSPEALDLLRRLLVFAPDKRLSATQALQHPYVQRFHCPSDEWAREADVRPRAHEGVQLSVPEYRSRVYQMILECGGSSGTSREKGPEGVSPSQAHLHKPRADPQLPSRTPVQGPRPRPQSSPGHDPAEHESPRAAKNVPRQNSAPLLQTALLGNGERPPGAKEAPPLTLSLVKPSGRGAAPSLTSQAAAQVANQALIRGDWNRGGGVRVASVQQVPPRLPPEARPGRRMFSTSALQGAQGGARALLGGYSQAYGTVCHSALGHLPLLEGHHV

[5] = biological target: T1, Nuclear receptor subfamily 1 group I member 3; experiment: Inhibition of GST-tagged human CAR LBD at 30 uM incubated for 90 mins in presence of Cy5-PGC1-alpha by HTRF co-activator assay relative to control; details: 1.5 h, read-out: Imax
[6] = biological target: T1, Nuclear receptor subfamily 1 group I member 3; experiment: Inhibition of GST-tagged human CAR LBD incubated for 90 mins in presence of Cy5-PGC1-alpha by HTRF co-activator assay
[7] = biological target: T5, Peripheral plasma membrane protein CASK (Homo sapiens, UniProt O14936); experiment: Binding affinity to GST-tagged human CASK assessed as dissociation constant incubated for 90 mins by TR-FRET assay
T5 sequence (O14936 whole entry): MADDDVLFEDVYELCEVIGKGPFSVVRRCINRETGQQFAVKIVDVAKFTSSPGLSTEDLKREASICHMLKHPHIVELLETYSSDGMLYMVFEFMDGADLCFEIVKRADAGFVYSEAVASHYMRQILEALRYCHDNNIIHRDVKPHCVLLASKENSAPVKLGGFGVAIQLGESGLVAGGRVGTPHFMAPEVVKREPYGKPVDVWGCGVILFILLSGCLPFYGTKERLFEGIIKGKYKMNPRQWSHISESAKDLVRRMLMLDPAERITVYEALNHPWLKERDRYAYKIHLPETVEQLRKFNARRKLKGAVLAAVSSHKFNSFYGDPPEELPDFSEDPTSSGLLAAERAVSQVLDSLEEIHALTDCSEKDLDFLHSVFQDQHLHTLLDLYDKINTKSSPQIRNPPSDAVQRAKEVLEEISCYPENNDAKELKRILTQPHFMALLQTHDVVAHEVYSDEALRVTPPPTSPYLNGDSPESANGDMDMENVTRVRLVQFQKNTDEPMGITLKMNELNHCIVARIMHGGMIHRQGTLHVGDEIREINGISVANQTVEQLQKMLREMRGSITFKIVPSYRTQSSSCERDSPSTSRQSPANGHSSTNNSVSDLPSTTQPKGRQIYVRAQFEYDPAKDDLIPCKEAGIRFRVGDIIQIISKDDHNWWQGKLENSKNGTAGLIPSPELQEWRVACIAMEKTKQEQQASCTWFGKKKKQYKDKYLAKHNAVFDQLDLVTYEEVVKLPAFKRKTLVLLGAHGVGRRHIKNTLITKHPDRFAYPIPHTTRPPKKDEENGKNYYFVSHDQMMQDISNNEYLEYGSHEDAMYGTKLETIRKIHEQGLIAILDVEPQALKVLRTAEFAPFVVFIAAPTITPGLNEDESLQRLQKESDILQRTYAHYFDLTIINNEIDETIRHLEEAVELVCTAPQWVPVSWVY

[8] = biological target: T1, Nuclear receptor subfamily 1 group I member 3; experiment: Binding affinity to GST-tagged human CAR LBD assessed as dissociation constant incubated for 90 mins by TR-FRET assay
[9] = biological target: T1, Nuclear receptor subfamily 1 group I member 3; experiment: Binding affinity to GST-tagged human CAR LBD assessed as fold change in FRET signal at 125 nM incubated for 90 mins by TR-FRET assay relative to control; details: 1.5 h, 0.125 µM
[10] = biological target: T2, Glycogen synthase kinase-3 alpha; experiment: Binding affinity to GST-tagged human GSK3A assessed as dissociation constant incubated for 90 mins by TR-FRET assay
[11] = biological target: T1, Nuclear receptor subfamily 1 group I member 3; experiment: Binding affinity to GST-tagged human CAR LBD assessed as fold change in FRET signal at 298.2 nM incubated for 90 mins by TR-FRET assay relative to control; details: 1.5 h, 0.2982 µM
CDK9/cyclin T1 = CDK9/cyclin T1 (Homo sapiens, UniProt P50750); experiment: Binding affinity to His-tagged human CDK9/CycT1 assessed as dissociation constant incubated for 90 mins by TR-FRET assay; format: protein-complex assay
[12] = biological target: T1, Nuclear receptor subfamily 1 group I member 3; experiment: Inhibition of GST-tagged human CAR LBD at […] incubated for 90 mins in presence of Cy5-PGC1-alpha by HTRF co-activator assay relative to control; details: 1.5 h, dose 3.3 µM, read-out: Imax
[13] = biological target: T4, Mitogen-activated protein kinase 15; experiment: Binding affinity to Flag/His-tagged human MAPK15 assessed as dissociation constant incubated for 90 mins by TR-FRET assay
[14] = biological target: T3, Calcium/calmodulin-dependent protein kinase kinase 2; experiment: Binding affinity to GST-tagged human CAMKK2 assessed as dissociation constant incubated for 90 mins by TR-FRET assay
[15] = biological target: T6, Dual specificity tyrosine-phosphorylation-regulated kinase 2 (Homo sapiens) (UniProt Q92630); experiment: Binding affinity to GST-tagged human DYRK2 incubated for 90 mins by TR-FRET assay
T6 sequence (whole entry): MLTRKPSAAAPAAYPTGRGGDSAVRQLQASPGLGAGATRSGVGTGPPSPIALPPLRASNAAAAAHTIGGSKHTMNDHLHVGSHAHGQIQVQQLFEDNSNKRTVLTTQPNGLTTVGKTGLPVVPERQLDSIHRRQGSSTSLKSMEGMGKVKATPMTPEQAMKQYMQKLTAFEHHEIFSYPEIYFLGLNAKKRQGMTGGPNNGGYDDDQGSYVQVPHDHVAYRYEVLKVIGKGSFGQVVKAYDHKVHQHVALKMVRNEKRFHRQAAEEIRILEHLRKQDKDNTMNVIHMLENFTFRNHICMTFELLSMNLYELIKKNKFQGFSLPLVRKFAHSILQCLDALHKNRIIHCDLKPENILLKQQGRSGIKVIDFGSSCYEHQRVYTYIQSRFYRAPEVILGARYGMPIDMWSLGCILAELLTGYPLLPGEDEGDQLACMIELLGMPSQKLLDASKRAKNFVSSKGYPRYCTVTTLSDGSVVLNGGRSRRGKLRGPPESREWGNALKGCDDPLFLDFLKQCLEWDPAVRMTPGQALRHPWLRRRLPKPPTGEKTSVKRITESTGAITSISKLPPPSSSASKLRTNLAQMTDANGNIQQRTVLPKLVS

T3 sequence (Q96RR4 whole entry): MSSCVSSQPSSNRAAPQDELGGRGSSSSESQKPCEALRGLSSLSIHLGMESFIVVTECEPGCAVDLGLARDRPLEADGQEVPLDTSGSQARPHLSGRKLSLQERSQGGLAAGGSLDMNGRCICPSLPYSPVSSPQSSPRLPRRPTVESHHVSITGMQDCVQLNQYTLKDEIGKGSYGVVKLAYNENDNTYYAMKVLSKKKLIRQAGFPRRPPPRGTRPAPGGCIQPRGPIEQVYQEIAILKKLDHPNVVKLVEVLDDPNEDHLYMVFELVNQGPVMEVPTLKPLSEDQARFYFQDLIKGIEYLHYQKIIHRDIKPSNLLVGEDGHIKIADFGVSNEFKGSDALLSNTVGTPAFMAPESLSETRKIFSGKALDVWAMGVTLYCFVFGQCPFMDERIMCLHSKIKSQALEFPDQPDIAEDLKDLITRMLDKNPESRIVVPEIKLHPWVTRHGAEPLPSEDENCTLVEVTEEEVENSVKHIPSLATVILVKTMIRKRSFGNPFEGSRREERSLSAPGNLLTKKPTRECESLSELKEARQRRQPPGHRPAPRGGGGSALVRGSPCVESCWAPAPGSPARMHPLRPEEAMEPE
T2 sequence (P49840 whole entry): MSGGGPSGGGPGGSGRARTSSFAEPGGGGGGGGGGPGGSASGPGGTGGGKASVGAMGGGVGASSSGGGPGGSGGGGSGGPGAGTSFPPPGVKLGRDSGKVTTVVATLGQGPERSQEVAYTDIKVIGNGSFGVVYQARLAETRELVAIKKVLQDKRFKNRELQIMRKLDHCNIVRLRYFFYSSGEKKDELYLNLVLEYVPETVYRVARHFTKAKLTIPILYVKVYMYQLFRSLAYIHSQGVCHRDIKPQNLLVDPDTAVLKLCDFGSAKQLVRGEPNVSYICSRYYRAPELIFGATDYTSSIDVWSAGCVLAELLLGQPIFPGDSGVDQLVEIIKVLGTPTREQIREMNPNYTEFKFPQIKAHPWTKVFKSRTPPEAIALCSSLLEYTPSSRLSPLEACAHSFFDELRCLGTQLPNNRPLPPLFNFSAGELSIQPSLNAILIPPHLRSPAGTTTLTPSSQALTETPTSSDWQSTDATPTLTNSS
Sequence of CDK9/cyclin T1 (O60563 whole entry, the tested form may be a part): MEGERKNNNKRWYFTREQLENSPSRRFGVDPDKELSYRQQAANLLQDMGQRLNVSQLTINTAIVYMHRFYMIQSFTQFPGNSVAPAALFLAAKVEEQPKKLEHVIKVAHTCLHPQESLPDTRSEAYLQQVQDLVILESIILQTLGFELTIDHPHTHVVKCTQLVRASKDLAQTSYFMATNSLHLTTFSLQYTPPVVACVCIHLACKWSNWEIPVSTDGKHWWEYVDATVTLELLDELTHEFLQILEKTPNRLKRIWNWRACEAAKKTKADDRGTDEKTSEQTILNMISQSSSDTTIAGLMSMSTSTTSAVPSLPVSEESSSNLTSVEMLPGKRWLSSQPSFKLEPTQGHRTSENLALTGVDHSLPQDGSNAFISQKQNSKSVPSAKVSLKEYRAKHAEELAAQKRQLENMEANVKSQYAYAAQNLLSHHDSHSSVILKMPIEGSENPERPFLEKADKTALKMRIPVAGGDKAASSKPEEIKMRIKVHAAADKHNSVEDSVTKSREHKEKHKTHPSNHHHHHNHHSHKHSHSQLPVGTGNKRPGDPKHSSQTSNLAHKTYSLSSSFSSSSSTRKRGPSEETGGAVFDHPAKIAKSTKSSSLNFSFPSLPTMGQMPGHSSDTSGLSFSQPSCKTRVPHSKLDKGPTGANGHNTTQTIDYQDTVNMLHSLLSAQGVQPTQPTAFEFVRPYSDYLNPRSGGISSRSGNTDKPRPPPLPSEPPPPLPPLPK
Sequence of CDK9/cyclin T1 (P50750 whole entry, the tested form may be a part): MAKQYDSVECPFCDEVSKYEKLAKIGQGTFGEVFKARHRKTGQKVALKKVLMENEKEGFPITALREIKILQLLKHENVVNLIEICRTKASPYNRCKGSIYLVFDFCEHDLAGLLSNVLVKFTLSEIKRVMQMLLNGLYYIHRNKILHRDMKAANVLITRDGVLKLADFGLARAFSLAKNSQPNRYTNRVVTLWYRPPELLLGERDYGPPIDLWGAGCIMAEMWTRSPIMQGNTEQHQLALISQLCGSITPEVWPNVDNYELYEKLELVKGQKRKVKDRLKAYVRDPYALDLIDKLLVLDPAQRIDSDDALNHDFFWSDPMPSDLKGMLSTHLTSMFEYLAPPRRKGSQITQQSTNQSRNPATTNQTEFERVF

Q: For O=S(=O)(c1ccccc1)N(CC(F)(F)F)c1ccc(C(O)(C(F)(F)F)C(F)(F)F)cc1 [T091317], which IC50 [1] is on record?
A: 651 nM

Q: What does the source list for CC[C@H](Nc1nc(NCc2cnc(C)cc2C)c2ncn(C(C)C)c2n1)[C@@H](C)O [CYC-065]?
A: IC50 [2]: 11100 nM; IC50 [3]: 13200 nM; IC50 [4]: 386 nM

Q: How did the inhibition at 30 µM [5] turn out when CCOC(=O)Nc1ccc2c(c1)N(C(=O)CN(CC)CC)c1ccccc1CC2 was run?
A: 100%

Q: What about the IC50 [6] of the same compound?
A: 258 nM

Q: What about the IC50 [1] of the same compound?
A: 162 nM

Q: CN1CC[C@@H](c2c(O)cc(O)c3c(=O)cc(-c4ccccc4Cl)oc23)[C@@H]1CO was tested. Which IC50 [2] did it give?
A: 270 nM

Q: What about the IC50 [3] of the same compound?
A: 6500 nM

Q: What about the IC50 [4] of the same compound?
A: 706 nM

Q: Which IC50 [3] does the source give for CN1CC[C@H](c2c(O)cc(O)c3c(=O)cc(-c4ccccc4Cl)oc23)[C@H](O)C1 [ALVOCIDIB] here?
A: 296 nM

Q: And the Ki [3]?
A: 239 nM

Q: And the IC50 [4]?
A: 164 nM

Q: What about the Ki [4] of the same compound?
A: 120 nM

Q: With Cc1cc(C)n2c1C=C1C=CC(CCC(=O)N3CCC(C(=O)Nc4ncc(SCc5ncc(C(C)(C)C)o5)s4)CC3)=[N+]1[B-]2(F)F as the compound, how does the Kd [7] read?
A: 550 nM

Q: What about the Kd [8] of the same compound?
A: 300 nM

Q: And the IC50 [6]?
A: 224 nM

Q: What about the “fold change (FC)” value [9] of the same compound?
A: 9.7

Q: And the Kd [10]?
A: 4.5 nM

Q: What about the “fold change (FC)” value [11] of the same compound?
A: 9.1

Q: And the Kd (CDK9/cyclin T1)?
A: 5.1 nM

Q: And the inhibition at […] [12]?
A: 95.9%

Q: What about the Kd [13] of the same compound?
A: 340 nM

Q: And the Kd [14]?
A: 530 nM

Q: And the Activity [15]?
A: inactive

Q: With Cc1oc2ccccc2c1CNC(=O)NCc1cccs1 as the compound, how does the IC50 [1] read?
A: 260 nM
